Experimental data as given in patent US20120283216A1, “FUNGICIDAL 2-(BICYCLIC ARYLOXY)CARBOXAMIDES” (priority 2009, published 2012).

Experiments:
Format in all cases: in vivo
[1] = test system: Blumeria graminis f. sp. tritici; assay: Test A: wheat powdery mildew, preventive spray on wheat seedlings, visual disease rating; settings: preventive spray at 40 ppm, rated 8 days after inoculation; for pest or weed control at 40 ppm: Blumeria graminis, 192 h, read-out: Test A disease control rating (100 = 100% disease control, 0 = no disease control relative to the controls)
Outline: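 Wheat seedlings sprayed to run-off with 40 ppm compound (equivalent to 800 g/ha) in acetone/water with 250 ppm surfactant, then dusted with B. graminis spores next day. Held at 20° C. for 8 days before visual rating, 0–100 scale as % disease control relative to controls.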

Septoria tritici = assay: Test B: wheat leaf blotch, preventive spray on wheat seedlings, visual disease rating; settings: preventive spray at 40 ppm, rated after 48 h + 19 days; for pest or weed control at 40 ppm: Zymoseptoria tritici, 504 h, read-out: Test B disease control rating (100 = 100% disease control, 0 = no disease control relative to the controls)
Outline: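 Wheat seedlings were sprayed to run-off with 40 ppm compound (≈800 g/ha) in acetone/water with 250 ppm surfactant, then inoculated with Septoria tritici spores the next day. After 48 h saturated humidity at 20° C and 19 days in a growth chamber at 20° C, disease control was rated visually (0–100% vs controls).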

Botrytis cinerea = assay: Test C: tomato botrytis, preventive spray on tomato seedlings, visual disease rating; settings: preventive spray at 40 ppm, rated after 48 h + 3 days; for pest or weed control at 40 ppm: Botrytis cinerea, 120 h, read-out: Test C disease control rating (100 = 100% disease control, 0 = no disease control relative to the controls)
Outline: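 Compounds applied at 40 ppm (≈800 g/ha) in acetone/water with surfactant, sprayed to run-off on tomato seedlings. Inoculated next day with B. cinerea spores; 48 h saturated humidity at 20 °C, then 3 days at 27 °C. Visual rating as % disease control versus untreated controls.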

| SMILES | Test A disease control rating (100 = 100% disease control, 0 = no disease control relative to the controls) [1] [%] | Test B disease control rating (100 = 100% disease control, 0 = no disease control relative to the controls) (Septoria tritici) [%] | Test C disease control rating (100 = 100% disease control, 0 = no disease control relative to the controls) (Botrytis cinerea) [%] | pest or weed control at 40 ppm [1] [%] | pest or weed control at 40 ppm (Septoria tritici) [%] | pest or weed control at 40 ppm (Botrytis cinerea) [%] |
| --- | --- | --- | --- | --- | --- | --- |
| CCC(Oc1ccc2ccc(Br)cc2c1)C(=O)NC(C)(C)COP(C)(C)=O (stereo not drawn) [Compound 10] | 21 | 99 | 98 |  |  |  |
| CCCOc1ccc2ccc(OC(OC)C(=O)NC(C)(C)COC)cc2c1 (stereo not drawn) [Compound 124] | 98 | 100 | 99 |  |  |  |
| CCC(Oc1ccc2ccc(C#C[Si](C)(C)C)cc2c1)C(=O)NC(C)(C)COC (stereo not drawn) [Compound 96] | 0 | 100 | 99 |  |  |  |
| CCOc1ccc2ccc(OC(OCC)C(=O)NC(C)(C)C)cc2c1 (stereo not drawn) [Compound 121] |  |  |  | 29 | 100 | 99 |
| C#CC(C)(C)NC(=O)C(OC)Oc1ccc2ccc(OCC)cc2c1 (stereo not drawn) [Compound 69, N-(1,1-dimethyl-2-propyn-1-yl)-2-[(7-ethoxy-2-naphthalenyl)oxy]-2-methoxyacetamide] |  |  |  | 100 | 100 | 100 |
| C#CC(C)(C)NC(=O)C(OC)Oc1cnc2ccc(I)cc2c1 (stereo not drawn) [Compound 63, N-(1,1-dimethyl-2-propyn-1-yl)-2-[(6-iodo-3-quinolinyl)oxy]-2-methoxy-acetamide] |  |  |  | 93 | 99 | 99 |
| C#Cc1ccc2ncc(OC(CC)C(=O)NC(C)(C)CC)cc2c1 (stereo not drawn) [Compound 150] | 96 | 100 | 97 |  |  |  |
| C#CC(C)(C)NC(=O)C(CC)Oc1cnc2ccc(Br)cc2c1 (stereo not drawn) [Compound 38] | 21 | 100 | 99 |  |  |  |
| C#CC(C)(C)NC(=O)C(OCC)Oc1ccc2ccc(OC)cc2c1 (stereo not drawn) [Compound 115] | 79 | 99 | 97 |  |  |  |
| C#CC(C)(C)NC(=O)C(CC)Oc1ccc2ccc(C(F)F)cc2c1 (stereo not drawn) [Compound 78] | 81 | 88 | 99 |  |  |  |
| CCC(Oc1ccc2ccc(Br)cc2c1)C(=O)NC(C)(C)CNC=O (stereo not drawn) [Compound 11] | 21 | 99 | 100 |  |  |  |
| C#CCOc1ccc2ccc(OC(OC)C(=O)NC(C)(C)C)cc2c1 (stereo not drawn) [Compound 131] | 68 | 100 | 100 |  |  |  |
| CCCOc1ccc2ccc(OC(CC)C(=O)NC(C)(C)C)cc2c1 (stereo not drawn) [Compound 128] | 98 | 100 | 99 |  |  |  |
| CCC(Oc1cnc2ccc(Br)cc2c1)C(=O)NC(C)(C)C (stereo not drawn) [Compound 37, 2-[(6-bromo-3-quinolinyl)oxy]-N-(1,1-dimethylethyl)butanamide] |  |  |  | 89 | 100 | 99 |
| CCC(Oc1ccc2ccc(Br)cc2c1)C(=O)NC(C)(C)C (stereo not drawn) [Compound 8, 2-[(7-bromo-2-naphthalenyl)oxy]-N-(1,1-dimethylethyl)butanamide] |  |  |  | 100 | 99 | 99 |
| COCC(Oc1cnc2ccc(Br)cc2c1)C(=O)NC(C)(C)C (stereo not drawn) [Compound 34] | 0 | 92 | 94 |  |  |  |
| CCC(Oc1ccc2ccc(Br)cc2c1)C(=O)NC(C)(C)CN (stereo not drawn) [Compound 14] | 90 | 99 | 99 |  |  |  |
| CCC(Oc1ccc2ccc(C#N)cc2c1)C(=O)NC(C)(C)C (stereo not drawn) [Compound 33] |  |  |  | 62 | 99 | 95 |
| COCC(C)(C)NC(=O)C(OC)Oc1cnc2ccc(I)cc2c1 (stereo not drawn) [Compound 65] | 81 | 99 | 100 |  |  |  |
| CCCOc1ccc2ccc(OC(CC)C(=O)NC(C)(C)COC)cc2c1 (stereo not drawn) [Compound 127] | 94 | 99 | 99 |  |  |  |
| CCOC(Oc1ccc2ccc(OC)cc2c1)C(=O)NC(C)(C)COC (stereo not drawn) [Compound 113] | 97 | 100 | 99 |  |  |  |
| CCC(Oc1ccc2ccc(Br)cc2c1)C(=O)NC(C)(C)COCOC (stereo not drawn) [Compound 20, 2-[(7-bromo-2-naphthalenyl)oxy]-N-[2-(methoxymethoxy)-1,1-dimethylethyl]butanamide] |  |  |  | 98 | 99 | 98 |
| COCC(C)(C)NC(=O)C(C)Oc1cnc2ccc(Br)cc2c1 (stereo not drawn) [Compound 60] | 0 | 74 | 95 |  |  |  |
| CCCOc1ccc2ccc(OC(OC)C(=O)NC(C)(C)CC)cc2c1 (stereo not drawn) [Compound 136] | 79 | 98 | 97 |  |  |  |
